The values below come from patent US10508104B2, “6-hydroxy-5-(phenyl/heteroarylsulfonyl)pyrimidin-4(1H)-one as APJ agonists” (Bristol-Myers Squibb Company, priority 2016, dated 2019).

The experiment concerns the target human APJ receptor (Homo sapiens (Human), UniProt P35414). Description: Intracellular cAMP accumulation assay (APJ hcAMP, HTRF). The experiment is classed as cell-based. As to conditions: HEK293 cells stably expressing human APJ receptor; inhibition of forskolin-mediated cAMP production; read-out: Human APJ cAMP EC50 Potency range. The method, boiled down: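 HEK293 cells stably expressing human APJ, 5,000 per well, incubated 30 min at rt with compound, […] and 2 μM forskolin. cAMP measured by HTRF against a cAMP standard curve as inhibition of forskolin-driven production. EC50 from variable-slope sigmoidal fit.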

The structures appear in SMILES notation.

human APJ receptor, sequence (P35414 whole entry): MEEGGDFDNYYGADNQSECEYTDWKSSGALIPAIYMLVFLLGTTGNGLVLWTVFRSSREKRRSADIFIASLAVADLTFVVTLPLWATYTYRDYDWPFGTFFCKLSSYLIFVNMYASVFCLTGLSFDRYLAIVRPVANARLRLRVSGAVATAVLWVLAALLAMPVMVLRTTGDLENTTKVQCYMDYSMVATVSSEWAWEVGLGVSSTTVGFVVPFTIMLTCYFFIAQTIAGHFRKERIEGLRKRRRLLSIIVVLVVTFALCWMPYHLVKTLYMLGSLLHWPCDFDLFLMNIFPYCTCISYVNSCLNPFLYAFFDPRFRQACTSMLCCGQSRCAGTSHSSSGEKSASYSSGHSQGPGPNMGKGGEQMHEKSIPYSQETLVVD

With `CCCCc1nc(=O)c(S(=O)(=O)c2ccc(-c3ccccc3C(=O)NC)cc2)c(O)n1[C@@H]1CCc2ccc(C#N)cc21` [Example 548, 4′-({2-butyl-1-[(1R)-6-cyano-2,3-dihydro-1H-inden-1-yl]-6-hydroxy-4-oxo-1,4-dihydropyrimidin-5-y1}sulfonyl)-N-methyl-[1,1′-biphenyl]-2-carboxamide], the concentration for a half-maximal effect (EC50) was in the range of 10 to 100 nM. For the compound `CCCCc1nc(=O)c(S(=O)(=O)c2ccc(-c3ccnc(F)c3C)cc2)c(O)n1[C@@H](CC)c1cccc(C#N)n1` [Example 549, 6-[(1S)-1-{2-butyl-5-[4-(2-fluoro-3-methylpyridin-4-yI)benzenesulfonyl]-6-hydroxy-4-oxo-1,4-dihydropyrimidin-1-yl}propyl]pyridine-2-carbonitrile], the EC50 is 0.01 to 10 nM.

In the case of `CCCCc1nc(=O)c(S(=O)(=O)c2ccc(-c3ccncc3C)cc2)c(O)n1[C@@H](CC)c1cccc(C#N)n1` [Example 550, 6-[(1S)-1-{2-butyl-6-hydroxy-5-[4-(3-methylpyridin-4-yl)benzenesulfonyl]-4-oxo-1,4-dihydropyrimidin-1-yl}propyl]pyridine-2-carbonitrile], the EC50 lay within 0.01 to 10 nM. The figure for `CCCCc1nc(=O)c(S(=O)(=O)c2ccc(-c3ccccc3C(=O)NC)cc2)c(O)n1[C@@H](CC)c1cccc(C#N)n1` [Example 551, 4′-({2-butyl-1-[(1S)-1-(6-cyanopyridin-2-yl)propyl]-6-hydroxy-4-oxo-1,4-dihydropyrimidin-5-yl}sulfonyl)-N-methyl-[1,1′-biphenyl]-2-carboxamide] is 0.01 to 10 nM.

Take `CCCCc1nc(=O)c(S(=O)(=O)c2ccc(-c3cccc(C(=O)NC)c3)cc2)c(O)n1[C@@H](CC)c1cccc(C#N)n1` [Example 552, 4′-({2-butyl-1-[(1S)-1-(6-cyanopyridin-2-yl)propyl]-6-hydroxy-4-oxo-1,4-dihydropyrimidin-5-yl}sulfonyl)-N-methyl-[1,1′-biphenyl]-3-carboxamide]: the half-maximal effective concentration (EC50) was in the range of 0.01 to 10 nM.

Consider `CCCCc1nc(=O)c(S(=O)(=O)[C@H]2CC[C@H](O)CC2)c(O)n1-c1c(CC)cccc1CC` [Example 553, 2-butyl-1-(2,6-diethylphenyl)-6-hydroxy-5-{[(1r,4r)-4-hydroxycyclohexyl]sulfonyl}-1,4-dihydropyrimidin-4-one], for which the EC50 is 0.01 to 10 nM. In the case of `CCCCc1nc(=O)c(S(=O)(=O)[C@H]2CC[C@@H](O)CC2)c(O)n1-c1c(CC)cccc1CC` [Example 554, 2-butyl-1-(2,6-diethylphenyl)-6-hydroxy-5-{[(1s,4s)-4-hydroxycyclohexyl]sulfonyl}-1,4-dihydropyrimidin-4-one], the EC50 was 0.01 to 10 nM.

On to `CCCCc1nc(=O)c(S(=O)(=O)[C@H]2CC[C@@H](O)CC2)c(O)n1-c1c(OC)cccc1OC` [Example 555, 2-butyl-1-(2,6-dimethoxyphenyl)-6-hydroxy-5-{[(1s,4s)-4-hydroxycyclohexyl]sulfonyl}-1,4-dihydropyrimidin-4-one], for which the EC50 is 0.01 to 10 nM. With `CCCCc1nc(=O)c(S(=O)(=O)[C@H]2CC[C@H](O)CC2)c(O)n1-c1c(OC)cccc1OC` [Example 556, 2-butyl-1-(2,6-dimethoxyphenyl)-6-hydroxy-5-{[(1r,4r)-4-hydroxycyclohexyl]sulfonyl}-1,4-dihydropyrimidin-4-one] the figure was 0.01 to 10 nM.
